Reference: patent US11530244B2, “Cyclic polypeptides for PCSK9 inhibition” (priority 2018, dated 2022)
Starred links: 1 amine or outer side, 2 acyl side, 3 side chain; linkers in the order of their positions; H or OH if unused. Positions of bridges follow the written chain, without caps; N, C: chain ends. Non-standard residues stand in square brackets, D forms with d. Residues, ends and D or L forms follow the SMILES beside them. X43 = O=C(CC[S+]([O-])Cc1cc(F)cc(CSCCN[*:1])c1)[*:2]; X18 = O=C([C@@H](Cc1cccc(OCC=[*:3])c1)N[*:1])[*:2]; X25 = O=C([C@H](Cc1cccc(OCC=[*:3])c1)N[*:1])[*:2]; X26 = O=C([C@@H]1[C@@H](OCC=[*:3])CCN1[*:1])[*:2]; Trp(5-F) = N[C@@H](Cc1c[nH]c2ccc(F)cc12)C(=O)O; X42 = CN([C@@H](CCC=[*:3])C(=O)[*:2])[*:1]; Pro(cis-4-F) = O=C(O)[C@@H]1C[C@H](F)CN1; X4 = O=C(CCSCc1cccc(CSCCN[*:1])c1)[*:2]; mXylylene = c1cc(C[*:1])cc(C[*:2])c1; X6 = O=C(Cc1ccc(CN[*:2])cc1)[*:1]; X44 = O=C(C[*:2])NCCCC(=O)[*:1]; Aad = N[C@@H](CCCC(=O)O)C(=O)O; AllylGly = C=CC[C@H](N)C(=O)O; αMeP = C[C@@]1(C(=O)O)CCCN1; 3Amb = NCc1cccc(C(=O)O)c1; Orn = NCCC[C@H](N)C(=O)O; X2 = O=C(C[*:2])[*:1]; Mpa = O=C(O)CCS

Tests used:
Assay type in all cases: binding
[1] = biological target: T1, PCSK9 (Homo sapiens (Human), UniProt Q8NBP7); test: PCSK9 Alexa FRET Standard assay (displacement of AlexaFluor647 tagged cyclic peptide Reagent A); settings: PCSK9 Alexa FRET Standard assay, 0.5 nM PCSK9, 20 nM AF cyclic peptide Reagent A; read-out: IC50
T1 sequence (Q8NBP7 153-692): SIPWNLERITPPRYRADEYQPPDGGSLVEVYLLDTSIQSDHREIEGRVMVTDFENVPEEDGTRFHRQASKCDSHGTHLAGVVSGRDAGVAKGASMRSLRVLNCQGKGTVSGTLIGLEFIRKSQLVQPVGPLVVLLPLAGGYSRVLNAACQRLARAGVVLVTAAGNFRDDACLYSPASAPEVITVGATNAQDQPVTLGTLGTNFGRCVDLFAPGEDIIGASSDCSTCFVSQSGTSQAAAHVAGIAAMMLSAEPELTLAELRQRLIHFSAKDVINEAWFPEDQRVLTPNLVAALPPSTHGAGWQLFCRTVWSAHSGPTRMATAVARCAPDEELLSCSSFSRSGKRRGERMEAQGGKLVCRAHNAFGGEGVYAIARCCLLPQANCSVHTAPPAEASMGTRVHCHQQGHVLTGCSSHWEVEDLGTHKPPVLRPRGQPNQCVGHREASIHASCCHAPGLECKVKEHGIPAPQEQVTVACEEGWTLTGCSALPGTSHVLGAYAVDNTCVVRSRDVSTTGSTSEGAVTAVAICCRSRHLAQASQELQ
In short: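 TR-FRET displacement: 0.5 nM biotinylated PCSK9 with 1.25 nM Strep-Eu and 20 nM AlexaFluor-tagged cyclic peptide (final) in 50 mM HEPES pH 7.4, 0.15 M NaCl, 5 mM CaCl2, 0.01% BSA, 0.01% P20, ≥2 h at room temperature. IC50 from sigmoidal fit, converted to Ki via peptide KD; falling Eu counts flagged false positives.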

[2] = biological target: T1, PCSK9; test: PCSK9 Alexa FRET Plus assay (displacement of AlexaFluor647 tagged cyclic peptide Reagent B); settings: Alexa FRET Plus, 0.5 nM PCSK9, 960 nM AF cyclic peptide Reagent B; read-out: IC50
Procedure: A solution containing 1 nM biotinylated PCSK9+2.5 nM Lance Streptavidin Europium (Strep-Eu) was made in 50 mM HEPES pH 7.4, 0.15 M NaCl, 5 mM CaCl2), 0.01% BSA, and 0.01% Surfactant P20. A separate solution containing 1920 nM of the AlexaFluor tagged cyclic peptide was made in the same buffer system. An Echo was used to transfer 0.075 ul of compound plus 0.675 ul of DMSO to each well of an assay plate followed by the addition of 15 ul of PCSK9+Stept-Eu and 15 ul of AF peptide. The final assay volume was 30.750 ul containing 0.5 nM PCSK9, 1.25 nM Strep-Eu, and 960 nM AF cyclic peptide. The reaction was incubated at room temperature for at least two hours prior to fluorescence measurements using an Envision Multilabel Reader. IC50 values were determined by fitting data to a sigmoidal dose-response curve using nonlinear regression. Ki was then calculated from the IC50 and the KD of AF cyclic peptide. Counts (B-counts) of the europium-labeled PCSK9 were followed to observe if compounds were adversely affecting PCSK9. A fall off of the B-counts likely indicated a false positive of inhibition. Data from this procedure was reported as “P=‘numerical value’ (nanomolar)”

[3] = biological target: human PCSK9 / human LDLR EGFa domain interaction (Homo sapiens (Human), UniProt Q8NBP7); test: TR-FRET assay of inhibition of the PCSK9-LDLR protein-protein interaction; settings: TR-FRET, 20 nM human PCSK9, 20 nM human LDLR EGFa domain, 2 hours room temperature; read-out: IC50
Sequence of human PCSK9 / human LDLR EGFa domain interaction (Q8NBP7 153-692): as above
Sequence of human PCSK9 / human LDLR EGFa domain interaction (Q8NBP7 31-152 partner): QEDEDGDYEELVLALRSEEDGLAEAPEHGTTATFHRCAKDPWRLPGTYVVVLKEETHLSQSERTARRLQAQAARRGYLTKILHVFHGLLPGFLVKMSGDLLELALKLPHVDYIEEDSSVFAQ
In short: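 Inhibition of PCSK9 binding to the LDLR EGFa domain, each protein at 20 nM, detected by TR-FRET using streptavidin and anti-His donor/acceptor labels (5 nM). Two-hour room-temperature incubation in calcium-containing HEPES buffer.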

| SMILES | IC50 [1] [µM] | IC50 [2] [µM] | IC50 [3] [µM] |
| --- | --- | --- | --- |
| C[C@H]1NC(=O)[C@H](CCCCN)NC(=O)CCSCc2cccc(c2)CSC[C@@H](C(N)=O)NC(=O)[C@]2(C)CCCN2C(=O)[C@H](Cc2ccc(O)cc2)NC(=O)c2cccc(c2)CNC(=O)[C@H](Cc2c[nH]c3ccc(F)cc23)NC(=O)[C@H](Cc2c[nH]c3ccc(F)cc23)NC1=O [Compound 089] ([Mpa]K[dA][Trp(5-F)][Trp(5-F)][3Amb]Y[αMeP]C-NH2; linker 1-9 via mXylylene) | 0.00011 to 0.1 | 0.0001 to 0.1 |  |
| COc1ccc(C[C@@H]2NC(=O)[C@H]([C@@H](C)O)NC(=O)[C@@H]3C[C@H](F)CN3C(=O)[C@H](Cc3c[nH]c4ccc(F)cc34)NC(=O)[C@H](Cc3c[nH]c4ccc(F)cc34)NC(=O)[C@@H](C)NC(=O)[C@H](CCCCN)NC(=O)[C@@H](NC(C)=O)CCCNC(=O)COc3ccc(cc3)C[C@@H](C(N)=O)NC(=O)[C@]3(C)CCCN3C2=O)cc1 [Compound 091] (Ac-[Orn]K[dA][Trp(5-F)][Trp(5-F)][Pro(cis-4-F)]TY(Me)[αMeP]Y-NH2; linker 1-10 via X2) | 0.00011 to 0.1 | 0.1 to 0.5 |  |
| COc1ccc(C[C@@H]2NC(=O)[C@H]([C@@H](C)O)NC(=O)[C@@H]3C[C@H](F)CN3C(=O)[C@H](Cc3c[nH]c4ccc(F)cc34)NC(=O)[C@H](Cc3c[nH]c4ccc(F)cc34)NC(=O)[C@@H](C)NC(=O)[C@H](CCCCN)NC(=O)CCCNC(=O)COc3ccc(cc3)C[C@@H](C(N)=O)NC(=O)[C@]3(C)CCCN3C2=O)cc1 [Compound 092] (K[dA][Trp(5-F)][Trp(5-F)][Pro(cis-4-F)]TY(Me)[αMeP]Y-NH2; linker N-9 via X44) | 0.00011 to 0.1 | 0.0001 to 0.1 |  |
| COc1ccc(C[C@@H]2NC(=O)[C@H]([C@@H](C)O)NC(=O)[C@@H]3CC[C@H](F)N3C(=O)[C@H](Cc3c[nH]c4ccc(F)cc34)NC(=O)[C@H](Cc3c[nH]c4ccc(F)cc34)NC(=O)[C@@H](C)NC(=O)c3ccc(cc3)-c3ccc(cc3)CNCc3ccc(cc3)C[C@@H](C(N)=O)NC(=O)[C@]3(C)CCCN3C2=O)cc1 [Compound 093] | 1 to 12.1 | 0.5 to 5 |  |
| C[C@@H]1NC(=O)CCSCc2cccc(c2)CSCCNC(=O)[C@]2(C)CCCN2C(=O)[C@H](Cc2ccc(O)cc2)NC(=O)[C@H](C)NC(=O)[C@@H]2C/C=C\COc3cccc(c3)C[C@@H](NC(=O)[C@@H](C)NC1=O)C(=O)N[C@@H](Cc1c[nH]c3ccc(F)cc13)C(=O)N2 [Compound 498] (cyclo(AY[αMeP][X4]A[dA][X18][Trp(5-F)][AllylGly]); staple (Z) 7-9) | 1 to 12.1 |  | 1 to 12.1 |
| COc1ccc(C[C@@H]2NC(=O)[C@@H]3CCC/C=C\CO[C@H]4C[C@@H](C(=O)N3)N(C4)C(=O)[C@H](Cc3c[nH]c4ccc(F)cc34)NC(=O)[C@H](Cc3c[nH]c4ccc(F)cc34)NC(=O)[C@@H](C)NC(=O)[C@H](CCCCN)NC(=O)CCSCc3cccc(c3)CSC[C@@H](C(N)=O)NC(=O)[C@]3(C)CCCN3C2=O)cc1 [Compound 500] | 1 to 12.1 |  | 1 to 12.1 |
| COc1ccc(C[C@@H]2NC(=O)[C@@H]3CCCCCCO[C@H]4C[C@@H](C(=O)N3)N(C4)C(=O)[C@H](Cc3c[nH]c4ccc(F)cc34)NC(=O)[C@H](Cc3c[nH]c4ccc(F)cc34)NC(=O)[C@@H](C)NC(=O)[C@H](CCCCN)NC(=O)CCSCc3cccc(c3)CSC[C@@H](C(N)=O)NC(=O)[C@]3(C)CCCN3C2=O)cc1 [Compound 506] | 0.1 to 1 |  | 0.1 to 1 |
| COc1ccc(C[C@@H]2NC(=O)[C@H]([C@@H](C)OC)NC(=O)[C@@H]3CC/C=C/COc4cccc(c4)C[C@H](NC(=O)[C@@H](C)NC(=O)[C@H](C)NC(=O)CC[S+]([O-])Cc4cc(F)cc(c4)CSCCNC(=O)[C@]4(C)CCCN4C2=O)C(=O)N[C@@H](Cc2c[nH]c4ccc(F)cc24)C(=O)N3C)cc1 (stereo partly shown) [Compound 507] (cyclo(A[dA][X25][Trp(5-F)][X42]T(Me)Y(Me)[αMeP][X43]); staple (E) 3-5) | 0.00011 to 0.1 |  | 0.0001 to 0.1 |
| COc1ccc(C[C@@H]2NC(=O)[C@@H]3CC/C=C\CO[C@H]4C[C@@H](C(=O)N3)N(C4)C(=O)[C@H](Cc3c[nH]c4ccc(F)cc34)NC(=O)[C@H](Cc3c[nH]c4ccc(F)cc34)NC(=O)[C@@H](C)NC(=O)[C@H](CCCCN)NC(=O)CCSCc3cccc(c3)CSC[C@@H](C(N)=O)NC(=O)[C@]3(C)CCCN3C2=O)cc1 [Compound 509] | 0.00011 to 0.1 |  | 0.1 to 1 |
| COc1ccc(C[C@@H]2NC(=O)[C@@H]3CCCCCCCO[C@H]4C[C@@H](C(=O)N3)N(C4)C(=O)[C@H](Cc3c[nH]c4ccc(F)cc34)NC(=O)[C@H](Cc3c[nH]c4ccc(F)cc34)NC(=O)[C@@H](C)NC(=O)[C@H](CCCCN)NC(=O)CCSCc3cccc(c3)CSC[C@@H](C(N)=O)NC(=O)[C@]3(C)CCCN3C2=O)cc1 [Compound 511] | 0.00011 to 0.1 |  | 0.1 to 1 |
| COc1ccc(C[C@@H]2NC(=O)[C@@H]3CCC/C=C\CO[C@H]4C[C@@H](C(=O)N3)N(C4)C(=O)[C@H](Cc3c[nH]c4ccc(F)cc34)NC(=O)[C@H](Cc3c[nH]c4ccc(F)cc34)NC(=O)[C@@H](C)NC(=O)CCCCCC(=O)NCc3ccc(cc3)C[C@@H](C(N)=O)NC(=O)[C@]3(C)CCCN3C2=O)cc1 [Compound 512] | 0.00011 to 0.1 |  | 0.0001 to 0.1 |
| COc1ccc(C[C@@H]2NC(=O)[C@@H]3CC/C=C\CO[C@H]4C[C@@H](C(=O)N3)N(C4)C(=O)[C@H](Cc3c[nH]c4ccc(F)cc34)NC(=O)[C@H](Cc3c[nH]c4ccc(F)cc34)NC(=O)[C@@H](C)NC(=O)[C@H](C)NC(=O)[C@@H](NC(C)=O)CC(=O)NCc3ccc(cc3)C[C@@H](C(=O)O)NC(=O)[C@]3(C)CCCN3C2=O)cc1 [Compound 514] | 0.1 to 1 |  | 0.1 to 1 |
| COc1ccc(C[C@@H]2NC(=O)[C@H](C)NC(=O)[C@@H]3CCCCNc4cc(ccn4)C[C@H](NC(=O)[C@@H](C)NC(=O)[C@H](C)NC(=O)CCSCc4cccc(c4)CSC[C@@H](C(N)=O)NC(=O)[C@]4(C)CCCN4C2=O)C(=O)N[C@@H](Cc2c[nH]c4ccc(F)cc24)C(=O)N3)cc1 [Compound 515] | 0.00011 to 0.1 |  | 0.0001 to 0.1 |
| COc1ccc(C[C@@H]2NC(=O)[C@H]([C@@H](C)O)NC(=O)[C@@H]3[C@@H]4CCN3C(=O)[C@H](Cc3c[nH]c5ccc(F)cc35)NC(=O)[C@H](Cc3cccc(c3)OC/C=C/CO4)NC(=O)[C@@H](C)NC(=O)[C@H](C)NC(=O)CCSCc3cccc(c3)CSCCNC(=O)[C@]3(C)CCCN3C2=O)cc1 [Compound 516] (cyclo(A[dA][X25][Trp(5-F)][X26]TY(Me)[αMeP][X4]); staple (E) 3-5) | 0.00011 to 0.1 |  | 0.0001 to 0.1 |
| COc1ccc(C[C@@H]2NC(=O)[C@@H]3CCCC(=O)N[C@H]4C[C@@H](C(=O)N3)N(C4)C(=O)[C@H](Cc3c[nH]c4ccc(F)cc34)NC(=O)[C@H](Cc3c[nH]c4ccc(F)cc34)NC(=O)[C@@H](C)NC(=O)[C@H](C)NCCSCc3ccc(cc3)CSCCNC(=O)[C@]3(C)CCCN3C2=O)cc1 [Compound 519] | 1 to 12.1 |  | 1 to 12.1 |
| COc1ccc(C[C@@H]2NC(=O)[C@@H]3CCCCC(=O)N[C@H]4C[C@@H](C(=O)N3)N(C4)C(=O)[C@H](Cc3c[nH]c4ccc(F)cc34)NC(=O)[C@H](Cc3c[nH]c4ccc(F)cc34)NC(=O)[C@@H](C)NC(=O)[C@H](CCCN)NC(=O)CCSCc3cccc(c3)CCSCNC(=O)[C@]3(C)CCCN3C2=O)cc1 [Compound 521] | 0.00011 to 0.1 |  | 0.0001 to 0.1 |
| COc1ccc(C[C@@H]2NC(=O)[C@H](Cc3cnc[nH]3)NC(=O)[C@H](CC(=O)O)NC(=O)[C@H](Cc3c[nH]c4ccc(F)cc34)NC(=O)[C@H](Cc3c[nH]c4ccc(F)cc34)NC(=O)[C@@H](C)NC(=O)[C@H](NC(C)=O)CCCCNC(=O)Cc3ccc(cc3)CNC(=O)CCC[C@@H](C(N)=O)NC(=O)[C@]3(C)CCCN3C2=O)cc1 [Compound 523] (Ac-[dK][dA][Trp(5-F)][Trp(5-F)]DHY(Me)[αMeP][Aad]-NH2; linker 1-9 via X6) | 0.1 to 1 |  | 0.0001 to 0.1 |
